We go through 40 compounds from patent publication US8324380B2, “Amino-heteroaryl-containing prokineticin 1 receptor antagonists” (Janssen Pharmaceutica NV, priority 2007, dated 2012).

SMILES strings stand for the structures. Read-outs that look alike come from different tables or passages of the source.

The IC50 is the concentration that gives 50% inhibition.

This test deals with T1, GPR73 (prokineticin 1 receptor) (Homo sapiens, UniProt Q8TCW9).
T1 construct: expressed in transfected cells; host or cells: HEK 293
In words: PK1 functional assay: Ca2+ mobilization on the FLIPR. The class given is cell-based. The conditions noted are these: for inhibition at 10 µM: read-out: Ca^2+ Mobilization % Inh @10 µM; for IC50: HEK 293 GPR73 cells, read-out: Ca^2+ Mobilization IC50. As for the experimental part:
At a time of 24 h prior to running the assay, in cell culture media (DMEM containing high Glucose and L-glutamine, 10% FBS, 1% Pen/Streptomycin, 1% Sodium Pyruvate, 20 mM HEPES, Zeocin 200 mg/L), 100 µL of 1.3*10^6/ml HEK 293 GPR73 (prokineticin 1 receptor) expressing cells were plated in a 96 well poly-d-lysine coated plate (Costar), and incubated at 37° C. and 5% CO2. On the day in which the assay was run, the media was removed and 200 µL of 5× Calcium Plus Dye (Molecular Devices) which was previously resuspended with 200 mL of assay buffer [HBSS w/Ca^2+ and Mg^2+ w/o phenol red, 20 mM HEPES, 0.1% BSA, 10 mL probenecid (710 mg probenecid in 5 mL of 1N NaOH, to which was then added 5 mL HBSS containing 20 mM HEPES)] was added to each well of the 96-well plate. The plate was incubated at 37° C. and 5% CO2 for 30 min in dark. The plate was removed and allowed to reach RT for 15 min in the dark. The assay was then run on the FLIPR. In Brief: base line read for 1 min, compound added (25 μL) and incubated for 4 min, 15 seconds, PK1 ligand preparation added (25 μL) for a final concentration of a previously determined EC50 and fluorescence was counted for 1 min, 45 seconds. Baseline is described as the amount of relative fluorescence read when buffer alone is added to cells. Baseline was subtracted from all wells. Percent of control was calculated as follows: (Baseline subtracted well value is divided by baseline subtracted max value)*100. Percent inhibition is 100 minus the percent of control value.
The IC50 is defined as the amount of a given compound required to inhibit 50% of the maximum signal that is generated by the concentration of PK1 preparation used in our assay. IC50 values were calculated using GraphPad Prism.
A general note: Calcium assays in cells follow changes in intracellular calcium, usually with a dye or a luminescent sensor.

T1 sequence (Q8TCW9 whole entry, species assumed): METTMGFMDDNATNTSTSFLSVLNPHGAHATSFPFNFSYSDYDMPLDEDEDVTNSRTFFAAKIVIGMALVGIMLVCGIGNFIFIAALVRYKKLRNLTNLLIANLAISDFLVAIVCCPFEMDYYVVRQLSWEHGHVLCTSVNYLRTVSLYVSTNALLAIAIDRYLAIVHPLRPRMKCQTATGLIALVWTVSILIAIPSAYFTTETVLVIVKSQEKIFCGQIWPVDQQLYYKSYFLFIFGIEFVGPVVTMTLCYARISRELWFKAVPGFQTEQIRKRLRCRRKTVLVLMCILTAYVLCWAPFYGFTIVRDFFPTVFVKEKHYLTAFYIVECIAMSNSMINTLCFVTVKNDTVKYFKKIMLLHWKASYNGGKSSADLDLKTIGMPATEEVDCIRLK

Take `NC1=Nc2ccccc2CN1CCNc1nc(=O)n(Cc2ccc(F)cc2)c(=O)n1Cc1ccc(OC(F)(F)F)cc1` [Cpd 47]: the IC50 was 123 nM. Moreover, the inhibition at 10 µM (10 µM) worked out at 100%.

For `COc1ccc(Cn2c(NCCn3c(N)nc4ccccc43)nc(=O)n(Cc3ccc(Cl)c(Cl)c3)c2=O)cc1` [Cpd 69], the IC50 was 66 nM. Also, the inhibition at 10 µM (10 µM) turned out to be 102%.

For the compound `Nc1nc2c(F)cc(F)cc2n1CCNc1nc(=O)n(Cc2ccc(F)cc2)c(=O)n1Cc1ccc(OC(F)F)cc1` [Cpd 28], the IC50 was more than 10000 nM. The inhibition at 10 µM (10 µM) is 39%.

Take `NC1=Nc2cc(F)ccc2CN1CCNc1nc(=O)n(Cc2ccc(F)cc2)c(=O)n1Cc1ccc(OC(F)(F)F)cc1` [Cpd 52]: the IC50 is 359 nM. Further, the inhibition at 10 µM (10 µM) is 104%.

Turning to `NC1=Nc2ccc(F)cc2CN1CCNc1nc(=O)n(Cc2ccc(F)cc2)c(=O)n1Cc1ccc(OC(F)(F)F)cc1` [Cpd 51], the IC50 was found to be 996 nM. Further, the inhibition at 10 µM (10 µM) was determined as 99%.

In the case of `COc1ccc(Cn2c(NCc3c[nH]c(N)n3)nc(=O)n(Cc3ccc(F)cc3)c2=O)cc1` [Cpd 6], the IC50 came to 322 nM. For the same compound, the inhibition at 10 µM (10 µM) stood at 91%.

As to `CSc1ccc(Cn2c(=O)nc(NCCn3c(N)nc4ccccc43)n(Cc3ccc4c(c3)CCO4)c2=O)cc1` [Cpd 74], the IC50 turned out to be 34 nM. Also, the inhibition at 10 µM (10 µM) was 102%.

As for `Cn1nnc2cc(Cn3c(=O)nc(NCCc4cnc(N)[nH]4)n(Cc4ccc(OC(F)F)cc4)c3=O)ccc21` [Cpd 83], the IC50 came to 224 nM. Moreover, the inhibition at 10 µM (10 µM) was found to be 98%.

In the case of `COc1ccc(Cn2c(C(=O)NCCn3c(N)nc4ccccc43)cc(=O)n(Cc3ccc(OC)cc3)c2=O)cc1` [Cpd 13, 1,3-Bis-(4-methoxy-benzyl)-2,6-dioxo-1,2,3,6-tetrahydro-pyrimidine-4-carboxylic acid [2-(2-amino-benzoimidazol-1-yl)-ethyl]-amide], the IC50 stood at 7390 nM. In addition, the inhibition at 10 µM (10 µM) turned out to be 51%.

As for `CCc1ccc(Cn2c(=O)nc(NCCn3c(N)nc4ccccc43)n(Cc3ccc(OC)cc3)c2=O)cc1` [Cpd 71], the IC50 stood at 90 nM. For the same compound, the inhibition at 10 µM (10 µM) is 101%.

Regarding `NC1=Nc2ccc(Cl)cc2CN1CCNc1nc(=O)n(Cc2ccc(F)cc2)c(=O)n1Cc1ccc(OC(F)(F)F)cc1` [Cpd 49], the IC50 is 233 nM. Further, the inhibition at 10 µM (10 µM) is 103%.

Turning to `Nc1nc2ccc(Cl)cc2n1CCNc1nc(=O)n(Cc2ccc(F)cc2)c(=O)n1Cc1ccc(OC(F)F)cc1` [Cpd 30], the IC50 was 252 nM. Besides, the inhibition at 10 µM (10 µM) is 86%.

As for `COc1ccc(Cn2c(NCCc3cnc(N)[nH]3)nc(=O)n(Cc3ccc(F)cc3)c2=O)cc1` [Cpd 4], the IC50 was 48 nM. For the same compound, the inhibition at 10 µM (10 µM, (further determination)) was found to be 96%. Moreover, for the setting “10 µM”, the inhibition at 10 µM came to 97%. The IC50 (IC50 (further determination)) worked out at 42 nM.

Turning to `COc1ccc(Cn2c(NCCn3c(N)nc4ccccc43)nc(=O)n(Cc3ccc(Cl)cc3)c2=O)cc1` [Cpd 14], the IC50 is 77 nM. For the same compound, for the setting “10 µM”, the inhibition at 10 µM turned out to be 95%.

As to `Nc1nccn1CCNc1nc(=O)n(Cc2ccc(F)cc2)c(=O)n1Cc1ccc(F)cc1` [Cpd 21], the IC50 is more than 10000 nM. For the setting “10 µM”, the inhibition at 10 µM was 37%.

For `Nc1ncc(CCNc2nc(=O)n(Cc3ccc(Cl)c(Cl)c3)c(=O)n2Cc2ccc3c(c2)CCO3)[nH]1` [Cpd 63], the IC50 was 2010 nM. Also, the inhibition at 10 µM (10 µM) was determined as 54%.

As to `COc1ccc(Cn2c(NCCn3ccnc3N)nc(=O)n(Cc3ccc(F)cc3)c2=O)cc1` [Cpd 2, 6-[2-(2-Amino-imidazol-1-yl)-ethylamino]-3-(4-fluoro-benzyl)-1-(4-methoxy-benzyl)-1H-[1,3,5]triazine-2,4-dione], the inhibition at 10 µM by setting is: (10 µM, (further determination)) 97%; (10 µM) 97%. The IC50 (IC50 (further determination)) stood at 5 nM.

As to `COc1ccc(Cn2c(NCCNc3nc4ccccc4[nH]3)nc(=O)n(Cc3ccc(Cl)c(Cl)c3)c2=O)cc1` [Cpd 1, 6-[2-(1H-Benzoimidazol-2-ylamino)-ethylamino]-3-(3,4-dichloro-benzyl)-1-(4-methoxy-benzyl)-1H-[1,3,5]triazine-2,4-dione], the IC50 is more than 10000 nM. In addition, for the setting “10 µM”, the inhibition at 10 µM is 40.4%.

Turning to `COc1ccc(Cn2c(NCCn3c(N)nc4cc(C(F)(F)F)ccc43)nc(=O)n(Cc3ccc(F)cc3)c2=O)cc1` [Cpd 8], the IC50 stood at 163 nM. For the same compound, for the setting “10 µM”, the inhibition at 10 µM amounted to 95%.

For the compound `CCc1ccc(Cn2c(=O)nc(NCCc3cnc(N)[nH]3)n(Cc3ccc(OC)cc3)c2=O)cc1` [Cpd 60], the IC50 stood at 295 nM. The inhibition at 10 µM (10 µM) stood at 85%.

Take `Nc1nc2ccccc2n1CCNc1nc(=O)n(Cc2ccc(F)cc2)c(=O)n1Cc1ccc(OC(F)F)cc1` [Cpd 20]: the IC50 is 53 nM. Besides, where the note is “10 µM, (further determination)”, the inhibition at 10 µM worked out at 101%. Moreover, the inhibition at 10 µM (10 µM) stood at 103%. In addition, the half-inhibitory concentration (IC50) (IC50 (further determination)) came out at 52 nM.

For `COc1ccc2c(c1)N=C(N)N(CCNc1nc(=O)n(Cc3ccc(F)cc3)c(=O)n1Cc1ccc(OC(F)F)cc1)C2` [Cpd 57], the half-maximal inhibitory concentration (IC50) was determined as 144 nM. In addition, the inhibition at 10 µM (10 µM) came to 95%.

On to `COc1ccc(Cn2c(NCCc3cnc(N)[nH]3)nc(=O)n(Cc3ccc4c(c3)nnn4C)c2=O)cc1` [Cpd 67], for which the concentration for half-maximal inhibition (IC50) was 171 nM. Also, where the note is “10 µM”, the inhibition at 10 µM was 93%.

For the compound `CCc1ccc(Cn2c(=O)nc(NCCc3cnc(N)[nH]3)n(Cc3ccc4c(c3)CCO4)c2=O)cc1` [Cpd 65], the IC50 was more than 10000 nM. The inhibition at 10 µM (10 µM) stood at 35%.

Consider `Nc1nc2ccccc2n1CCNc1nc(=O)n(Cc2ccc3c(c2)CCO3)c(=O)n1Cc1ccc(OC(F)F)cc1` [Cpd 87], for which the IC50 came to 223 nM. For the same compound, the inhibition at 10 µM (10 µM) was 102%.

In the case of `Nc1nc2ccc(F)c(F)c2n1CCNc1nc(=O)n(Cc2ccc(F)cc2)c(=O)n1Cc1ccc(OC(F)(F)F)cc1` [Cpd 37], the IC50 was 2200 nM. The inhibition at 10 µM (10 µM) turned out to be 72%.

Take `COc1ccc(Cn2c(NCCc3cnc(N)[nH]3)nc(=O)n(Cc3ccc(Cl)c(Cl)c3)c2=O)cc1` [Cpd 59]: the IC50 is 49 nM. Moreover, the inhibition at 10 µM (10 µM) stood at 96%.

For `COc1ccc(Cn2c(NCCn3c(N)nc4c(F)cccc43)nc(=O)n(Cc3ccc(F)cc3)c2=O)cc1` [Cpd 11], the IC50 is 146 nM. Further, the inhibition at 10 µM (10 µM) was 89%.

Take `NC1=Nc2ccc(F)cc2CN1CCNc1nc(=O)n(Cc2ccc(F)cc2)c(=O)n1Cc1ccc(OC(F)F)cc1` [Cpd 45]: the IC50 turned out to be 92 nM. For the same compound, the inhibition at 10 µM (10 µM) is 101%.

On to `COc1ccc(Cn2c(NCCn3c(N)nc4ccccc43)nc(=O)n(Cc3ccc4c(c3)nnn4C)c2=O)cc1` [Cpd 77], for which the IC50 worked out at 55 nM. For the same compound, the inhibition at 10 µM (10 µM) came out at 99%.

`COc1ccc(Cn2c(NCCc3cnc(N)[nH]3)nc(=O)n(Cc3ccc(SC)cc3)c2=O)cc1` [Cpd 61]: the IC50 was 21 nM. Moreover, the inhibition at 10 µM (10 µM, (further determination)) was determined as 102%. Moreover, the inhibition at 10 µM (10 µM) amounted to 101%. Besides, the IC50 (IC50 (further determination)) amounted to 19 nM.

Take `Nc1nc2ccc(F)cc2n1CCNc1nc(=O)n(Cc2ccc(F)cc2)c(=O)n1Cc1ccc(OC(F)(F)F)cc1` [Cpd 33]: the IC50 was 323 nM. In addition, the inhibition at 10 µM (10 µM) is 93%.

Consider `CSc1ccc(Cn2c(=O)nc(NCCn3c(N)nc4ccccc43)n(Cc3ccc(OC(F)F)cc3)c2=O)cc1` [Cpd 85], for which the IC50 is 157 nM. Moreover, the inhibition at 10 µM (10 µM) amounted to 99%.

`NC1=Nc2ccc(Cl)cc2CN1CCNc1nc(=O)n(Cc2ccc(F)cc2)c(=O)n1Cc1ccc(OC(F)F)cc1` [Cpd 43]: the IC50 is 111 nM. Also, the inhibition at 10 µM (10 µM) stood at 101%.

In the case of `Nc1ncc(CCNc2nc(=O)n(Cc3ccc(Cl)c(Cl)c3)c(=O)n2Cc2ccc(OC(F)F)cc2)[nH]1` [Cpd 79], the IC50 came out at 102 nM. For the same compound, the inhibition at 10 µM (10 µM) was determined as 96%.

Consider `CSc1ccc(Cn2c(=O)nc(NCCc3cnc(N)[nH]3)n(Cc3ccc4c(c3)CCO4)c2=O)cc1` [Cpd 64], for which the IC50 was 170 nM. Also, the inhibition at 10 µM (10 µM) turned out to be 93%.

Regarding `NC1=Nc2cccc(Cl)c2CN1CCNc1nc(=O)n(Cc2ccc(F)cc2)c(=O)n1Cc1ccc(OC(F)(F)F)cc1` [Cpd 48], the IC50 came to 116 nM. Moreover, the inhibition at 10 µM (10 µM) stood at 101%.

For the compound `Cn1nnc2cc(Cn3c(=O)nc(NCCn4c(N)nc5ccccc54)n(Cc4ccc5c(c4)CCO5)c3=O)ccc21` [Cpd 78], the IC50 amounted to 66 nM. The inhibition at 10 µM (10 µM, (further determination)) was found to be 104%. Moreover, the inhibition at 10 µM (10 µM) was found to be 102%. Also, the IC50 (IC50 (further determination)) came out at 130 nM.

In the case of `COc1cccc2c1nc(N)n2CCNc1nc(=O)n(Cc2ccc(F)cc2)c(=O)n1Cc1ccc(OC(F)F)cc1` [Cpd 55], the half-maximal inhibitory concentration (IC50) is 233 nM. For the setting “10 µM”, the inhibition at 10 µM stood at 91%.

Regarding `Nc1nc2ccc(Cl)cc2n1CCNc1nc(=O)n(Cc2ccc(F)cc2)c(=O)n1Cc1ccc(OC(F)(F)F)cc1` [Cpd 38], the IC50 came to 670 nM. Also, under “10 µM”, the inhibition at 10 µM is 84%.
